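Growth conditions: 96-well plates. Treatment: test compound, 48 hours, 5 concentrations. Analysis: linear interpolation between bracketing concentrations; unreached endpoints set to highest concentration. Abbreviation: GI50, concentration required for 50% inhibition of growth. TGI is the concentration that stops growth completely.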
What was measured:
Experiment in all cases: NCI anticancer screen, dose series, 48 h
[1] = system: OVCAR-8 ovarian
[2] = system: RXF 393 renal
[3] = system: EKVX NSCLC
[4] = system: M14 melanoma
[5] = system: HS 578T breast
[6] = system: MOLT-4 leukemia
[7] = system: SF-539 CNS
[8] = system: HL-60(TB) leukemia
[9] = system: LOX IMVI melanoma
[10] = system: BT-549 breast
[11] = system: SK-OV-3 ovarian
[12] = system: 786-0 renal
[13] = system: SW-620 colon
[14] = system: NCI-H522 lung
[15] = system: SN12C renal
[16] = system: PC-3 prostate
[17] = system: SNB-75 CNS
[18] = system: IGROV1 ovarian
[19] = system: MCF7 breast
[20] = system: SK-MEL-5 melanoma
[21] = system: TK-10 renal
[22] = system: OVCAR-4 ovarian
[23] = system: HCT-116 colon
[24] = system: UO-31 renal
[25] = system: SR leukemia
[26] = system: SF-295 CNS
[27] = system: SK-MEL-28 melanoma
[28] = system: RPMI-8226 leukemia
[29] = system: OVCAR-5 ovarian
[30] = system: KM12 colon
[31] = system: HOP-92 NSCLC
[32] = system: A498 renal
[33] = system: SK-MEL-2 melanoma
[34] = system: T-47D breast
[35] = system: CAKI-1 renal
[36] = system: MDA-MB-435
[37] = system: SF-268 CNS
[38] = system: DU-145 prostate
[39] = system: COLO 205 colon
[40] = system: NCI/ADR-RES ovarian
[41] = system: K-562 leukemia
[42] = system: NCI-H460 lung
[43] = system: SNB-19 CNS
[44] = system: U251 CNS
[45] = system: HOP-62 NSCLC
[46] = system: ACHN renal
[47] = system: A549 NSCLC
[48] = system: UACC-62 melanoma
[49] = system: UACC-257 melanoma
[50] = system: HCT-15 colon
[51] = system: HT29 colon
[52] = system: NCI-H226 lung
[53] = system: NCI-H23 lung
[54] = system: CCRF-CEM leukemia
[55] = system: OVCAR-3 ovarian
[56] = system: MDA-MB-231 breast
[57] = system: HCC-2998 colon
[58] = system: MALME-3M melanoma

CCc1nn2c(C)cc(C)nc2c1Cc1ccc(/C=C/CN2CCN(CCOCCOCCN3CCN(C/C=C/c4ccc(Cc5c(CC)nn6c(C)cc(C)nc56)cc4)CC3)CC2)cc1
GI50 [1]: 1.92 µM
TGI [1]: 3.92 µM
GI50 [2]: 1.68 µM
TGI [2]: 3.97 µM
GI50 [3]: 4.26 µM
TGI [3]: 8.84 µM
GI50 [4]: 1.76 µM
TGI [4]: 3.37 µM
GI50 [5]: 5.14 µM
TGI [5]: 12.1 µM
GI50 [6]: 2.16 µM
TGI [6]: 5.13 µM
GI50 [7]: 1.72 µM
TGI [7]: 3.19 µM
GI50 [8]: 1.78 µM
TGI [8]: 3.74 µM
GI50 [9]: 1.68 µM
TGI [9]: 3.16 µM
GI50 [10]: 4.98 µM
TGI [10]: 9.52 µM
GI50 [11]: 5.75 µM
TGI [11]: 10.5 µM
GI50 [12]: 1.72 µM
TGI [12]: 3.28 µM
GI50 [13]: 1.7 µM
TGI [13]: 3.31 µM
GI50 [14]: 1.7 µM
TGI [14]: 3.39 µM
GI50 [15]: 1.86 µM
TGI [15]: 3.99 µM
GI50 [16]: 2.81 µM
TGI [16]: 7.76 µM
GI50 [17]: 4.09 µM
TGI [17]: 8.18 µM
GI50 [18]: 2.8 µM
TGI [18]: 7.64 µM
GI50 [19]: 1.7 µM
TGI [19]: 3.35 µM
GI50 [20]: 1.87 µM
TGI [20]: 3.52 µM
GI50 [21]: 5.72 µM
TGI [21]: 10.4 µM
GI50 [22]: 1.8 µM
TGI [22]: 3.86 µM
GI50 [23]: 1.63 µM
TGI [23]: 3.16 µM
GI50 [24]: 1.42 µM
TGI [24]: 3.05 µM
GI50 [25]: 1.81 µM
TGI [25]: 4.6 µM
GI50 [26]: 2.95 µM
TGI [26]: 7.6 µM
GI50 [27]: 1.75 µM
TGI [27]: 3.2 µM
GI50 [28]: 1.87 µM
TGI [28]: 4.33 µM
GI50 [29]: 4.8 µM
TGI [29]: 9.34 µM
GI50 [30]: 3.28 µM
TGI [30]: 7.96 µM
GI50 [31]: 2.37 µM
TGI [31]: 7.16 µM
GI50 [32]: 5.15 µM
TGI [32]: 9.66 µM
GI50 [33]: 5.35 µM
TGI [33]: 9.95 µM
GI50 [34]: 1.74 µM
TGI [34]: 3.74 µM
GI50 [35]: 1.59 µM
TGI [35]: 3.35 µM
GI50 [36]: 1.75 µM
TGI [36]: 3.26 µM
GI50 [37]: 2.94 µM
TGI [37]: 8.26 µM
GI50 [38]: 2.88 µM
TGI [38]: 7.21 µM
GI50 [39]: 1.71 µM
TGI [39]: 3.22 µM
GI50 [40]: 2.74 µM
TGI [40]: 7.88 µM
GI50 [41]: 1.79 µM
TGI [41]: 4.41 µM
GI50 [42]: 1.88 µM
TGI [42]: 3.53 µM
GI50 [43]: 2.94 µM
TGI [43]: 7.95 µM
GI50 [44]: 1.85 µM
TGI [44]: 3.76 µM
GI50 [45]: 4.63 µM
TGI [45]: 9.44 µM
GI50 [46]: 2.25 µM
TGI [46]: 5.2 µM
GI50 [47]: 4.25 µM
TGI [47]: 8.78 µM
GI50 [48]: 1.74 µM
TGI [48]: 3.3 µM
GI50 [49]: 1.74 µM
TGI [49]: 3.4 µM
GI50 [50]: 1.69 µM
TGI [50]: 3.4 µM
GI50 [51]: 1.66 µM
TGI [51]: 3.26 µM
GI50 [52]: 5.09 µM
TGI [52]: 10.9 µM
GI50 [53]: 1.86 µM
TGI [53]: 3.65 µM
GI50 [54]: 1.64 µM
TGI [54]: 4.18 µM
GI50 [55]: 2.58 µM
TGI [55]: 7.12 µM
GI50 [56]: 1.91 µM
TGI [56]: 4.13 µM
GI50 [57]: 1.77 µM
TGI [57]: 3.48 µM
GI50 [58]: 1.73 µM
TGI [58]: 3.23 µM

Reference: PubChem BioAssay (NCI)
